Values after ≈ are worked out from the molar mass of the structure shown. Read-outs that look alike come from different tables or passages of the source.
How the values were obtained:
[1] = system: ESBL-producing ECO; experiment: MIC determination, microdilution broth method; type: cell-based, Escherichia coli
Description: Determination methods of a Minimal Inhibitory Concentration (MIC) and a Minimum Bactericidal Concentration (MBC) of a test product: the MIC and the MBC of the Pithecellobium clypearia Benth water or ethanol extract to the MDRAB are determined by a microdilution broth method. And it is operated by referring to the microdilution broth method recommended by National Committee for Clinical Laboratory Standards (NCCLS).
By determining the MIC and the MBC of the drug and making statistics of the data to obtain MIC50, MIC90, MBC50 and MBC90, the effect of the MDRA resistance of the drug is evaluated.

[2] = system: ESBL-producing ECO; experiment: Checkerboard assay (combined-use MIC, FIC); type: cell-based, Escherichia coli; conditions: 20 ESBL-producing ECOs
Description: Test methods of the sensibilization effects of the test product to similar antibiotics: it is operated by referring to a checkerboard assay recommended by NCCLS.
The checkerboard assay is performed in a 96-pore sterile culture plate.
Calculation of a Fractional Inhibitory Concentration (FIC): FIC=S20b combined-use MIC/S20b single-use MIC+antibiotic combined-use MIC/antibiotic single-use MIC. By calculating the FIC, the combined antibacterial interaction between the EA and the antibiotic is evaluated, with synergistic effect for FIC≤0.5, additive effect for 0.5<FIC≤1, indifferent effect for 1<FIC≤2 and antagonistic effect for FIC>2. According to a sterile growth pore, the optimum concentration ratio between the EA and the antibiotic is founded out. At last, the effect of the EA to strengthen the efficacy of the antibiotic is evaluated.

[3] = system: ATCC25922; experiment: MIC determination, control strain; type: cell-based
[4] = system: ATCC25922; experiment: MIC determination, control strain ATCC25922; type: cell-based; conditions: EA = 95% ethanol extract
[5] = EA = 10% ethanol extract, 20 ESBL-producing ECO strains
[6] = EA = 60% ethanol extract, 20 ESBL-producing ECO strains
[7] = EA = 95% ethanol extract, ESBL-producing ECOs
[8] = EA = water extract, 20 ESBL-producing ECO strains
[9] = single use, 20 ESBL-producing ECOs, section of the 10% ethanol extract
[10] = single use, 20 ESBL-producing ECOs, section of the 60% ethanol extract
[11] = single use, 20 ESBL-producing ECOs, section of the 95% ethanol extract
[12] = antibiotic with 10% ethanol extract
[13] = antibiotic with 60% ethanol extract
[14] = antibiotic with 95% ethanol extract

NCC[C@H](O)C(=O)N[C@@H]1C[C@H](N)[C@@H](O[C@H]2O[C@H](CN)[C@@H](O)[C@H](O)[C@H]2O)[C@H](O)[C@H]1O[C@H]1O[C@H](CO)[C@@H](O)[C@H](N)[C@H]1O [AMK, Amikacin]
MIC50 [1, 5]: 16 µg/mL (≈ 27.3 µM)
MIC90 [1, 5]: 64 µg/mL (≈ 109 µM)
MIC Range [1, 5]: 4 to 512 µg/mL
MIC50 [1, 6]: 16 µg/mL (≈ 27.3 µM)
MIC90 [1, 6]: 64 µg/mL (≈ 109 µM)
MIC Range [1, 6]: 4 to 512 µg/mL
MIC50 [1, 7]: 16 µg/mL (≈ 27.3 µM)
MIC90 [1, 7]: 64 µg/mL (≈ 109 µM)
MIC Range [1, 7]: 4 to 512 µg/mL
MIC50 [1, 8]: 16 µg/mL (≈ 27.3 µM)
MIC90 [1, 8]: 64 µg/mL (≈ 109 µM)
MIC Range [1, 8]: 4 to 512 µg/mL
MIC ([1]; Escherichia coli): 128 µg/mL (≈ 219 µM)
MIC50 ([1]; Escherichia coli, single use, 20 ESBL-producing ECOs, section of the water extract, read-out: MIC50): 16 µg/mL (≈ 27.3 µM)
MIC90 ([1]; Escherichia coli, single use, 20 ESBL-producing ECOs, section of the water extract, read-out: MIC90): 64 µg/mL (≈ 109 µM)
MIC50 [1, 9]: 16 µg/mL (≈ 27.3 µM)
MIC90 [1, 9]: 64 µg/mL (≈ 109 µM)
MIC50 [1, 10]: 16 µg/mL (≈ 27.3 µM)
MIC90 [1, 10]: 64 µg/mL (≈ 109 µM)
MIC50 [1, 11]: 16 µg/mL (≈ 27.3 µM)
MIC90 [1, 11]: 64 µg/mL (≈ 109 µM)
FIC, all strains [2, 12]: ≤ 2
MIC50 of the antibiotic after combined use [2, 12]: 4 µg/mL
MIC90 of the antibiotic after combined use [2, 12]: 16 µg/mL
reduction of the antibiotic's MIC50 vs single use [2, 12]: 75%
reduction of the antibiotic's MIC90 vs single use [2, 12]: 75%
share of strains with FIC ≤ 0.5 [2, 12]: 50%
FIC, all strains [2, 13]: ≤ 2
MIC50 of the antibiotic after combined use [2, 13]: 4 µg/mL
MIC90 of the antibiotic after combined use [2, 13]: 8 µg/mL
reduction of the antibiotic's MIC50 vs single use [2, 13]: 75%
share of strains with FIC ≤ 0.5 [2, 13]: 70%
FIC, all strains [2, 14]: ≤ 2
MIC50 of the antibiotic after combined use [2, 14]: 4 µg/mL
MIC90 of the antibiotic after combined use [2, 14]: 16 µg/mL
reduction of the antibiotic's MIC50 vs single use [2, 14]: 75%
reduction of the antibiotic's MIC90 vs single use [2, 14]: 75%
share of strains with FIC ≤ 0.5 [2, 14]: 50%
FIC, all strains ([2]; antibiotic with water extract): ≤ 2
MIC50 of the antibiotic after combined use ([2]; antibiotic with water extract): 4 µg/mL
MIC90 of the antibiotic after combined use ([2]; antibiotic with water extract): 16 µg/mL
reduction of the antibiotic's MIC50 vs single use ([2]; antibiotic with water extract): 75%
reduction of the antibiotic's MIC90 vs single use ([2]; antibiotic with water extract): 75%
share of strains with FIC ≤ 0.5 ([2]; antibiotic with water extract): 50%
MIC ([3]; EA = 10% ethanol extract): 4 µg/mL (≈ 6.83 µM)
MIC ([3]; EA = 60% ethanol extract): 4 µg/mL (≈ 6.83 µM)
MIC ([3]; EA = water extract, read-out: MIC): 4 µg/mL (≈ 6.83 µM)
MIC [4]: 4 µg/mL (≈ 6.83 µM)
